Counter-ions that a name gives are not always drawn.
How the values were obtained:
[1] = test system: Enterobacter aerogenes; experiment: Minimum Biocidal Concentration (MBC) in suspension; assay type: cell-based; conditions: active in 0.5% MEA + 1.5% TEA alkaline composition, no horse serum, contact time 6 minutes; for MBC: Klebsiella aerogenes, 0.1 h, read-out: MBC (ppm) E. aerogenes
Description: (§1) B) Antibacterial Efficacy (Minimum Biocidal Concentration in Suspension):
(§2) The antimicrobial efficacy of the antimicrobial agent in the composition is determined by measuring its Minimum Biocidal Concentration (MBC). The MBC is defined as the lowest absolute concentration of the particular antimicrobial active which provides complete kill (zero bacterial growth).
(§3) The antimicrobial agent was added to the composition at a level of 1000 ppm, or 500 ppm, or 200 ppm, or 100 ppm or 50 ppm, depending on what the Minimum Biocidal Concentration (MBC) is. 200 μL of the antimicrobial hard surface cleaning composition was dosed into one well of row A of a 96 well microtiter plate. Each subsequent well (rows B to G) were dosed with 100 μL of the same hard surface cleaning composition, without the addition of the antimicrobial agent. 100 μL of the antimicrobial hard surface cleaning composition was transferred from row A to row B and mixed. 100 μL of the composition was then transferred from row B to row C and mixed, and the process repeated to row G. As such, the concentration of the antimicrobial agent underwent two-fold dilution in adjacent wells, while the concentration of the other actives in the hard surface cleaning composition remained constant across all the wells in the same column.
(§4) 10 μL of the 10^8CFU/ml bacteria suspension in saline was added to wells A to F of the microtiter plate with row G kept as a nil bacteria control. The final volume in each well was 110 μL, except for row G which comprised 100 μL of the hard surface cleaning composition and no bacteria suspension. Bacterial inoculation to each column was staggered by 30 seconds to allow for equal incubation times in all wells so that the contact time between the bacteria and the antimicrobial active for all samples was 6 mins. After this contact time, 10 μL of each test solution was transferred to 90 μL of neutralizer solution (Modified Letheen Broth +1.5% Polysorbate 80, supplied by BioMérieux) to stop the antimicrobial action of the antimicrobial active matching the stagger of the inoculation. 2 μL of this solution was plated onto a TSA plate matching the stagger of the inoculation so that all samples are exposed to the neutralizer for the same period of time. The plate was incubated at 32.5° C. for 48 h. MBC concentration is taken as the lowest concentration of the antimicrobial active at which no visible colony growth is observed on the TSA plate.

[2] = test system: Staphylococcus aureus (S.aureus—ATCC #6538); experiment: Minimum Biocidal Concentration (MBC) in suspension; assay type: cell-based; conditions: active in 0.5% MEA + 1.5% TEA alkaline composition, no horse serum, contact time 6 minutes; for MBC: Staphylococcus aureus, ATCC6538, 0.1 h, read-out: MBC (ppm) S. aureus
Description: as §1, §2, §3, §4

[3] = pH measurement on the neat composition; assay type: physicochemical; conditions: composition of 0.5% MEA + 1.5% TEA with 50 ppm of the active; 25° C.
Description: The pH is measured on the neat composition, at 25° C., using a pH meter with compatible gel-filled pH probe (such as Sartarius PT-10P meter with Toledo probe part number 52 000 100), calibrated according to the instruction manual.

`CCCCCCCCN=c1ccn(CCCCCCCCCCn2ccc(=NCCCCCCCC)cc2)cc1` [Bispyridinium alkane, octenidine dihydrochloride] showed an MBC [1] of 12.5 µg/mL, an MBC [2] of 3.13 µg/mL and a pH [3] of 11.4.
For `[H]/N=C(\N/C(=N/[H])NCCCCCCNC(=N)NC(=N)Nc1ccc(Cl)cc1)Nc1ccc(Cl)cc1` [Chlorhexidine], the MBC [1] was 50 µg/mL, the MBC [2] was 50 µg/mL and the pH [3] was 11.2.
`CCCCCCCCCCCCN(CCCN)CCCN` [N-(3-Aminopropyl)-N-dodecylpropane-1,3-diamine] showed an MBC [1] of 50 µg/mL, an MBC [2] of 12.5 µg/mL and a pH [3] of 11.5.
For “N-alkyl dimethyl benzyl ammonium chloride”, the “MBC (ppm) E. aerogenes” value [1] was 12.5 ppm, the “MBC (ppm) S. aureus” value [2] was 12.5 ppm and the pH [3] was 11.4.
